Columns and labels:
Assay type in all cases: ADME, organism-based; call rule not given here
[1] = Drug excretion in Sprague-Dawley rat feces assessed as metabolite saikogenin f level at 50 mg/kg, po administered through gavage by LC-DAD-IT-TOF-MS analysis; design: dose 50 mg/kg, route oral; details: in vivo
[2] = Drug excretion in Sprague-Dawley rat urine assessed as metabolite hydroxysaikosaponin a level at 15 mg/kg, iv by LC-DAD-IT-TOF-MS analysis; design: dose 15 mg/kg, route intravenous; details: in vivo
[3] = Drug excretion in Sprague-Dawley rat bile assessed as metabolite delta1-saikogenin f level at 50 mg/kg, po administered through gavage by LC-DAD-IT-TOF-MS analysis; design: dose 50 mg/kg, route oral; details: in vivo
[4] = Drug excretion in Sprague-Dawley rat urine assessed as metabolite delta1-saikogenin f level at 15 mg/kg, iv by LC-DAD-IT-TOF-MS analysis; design: dose 15 mg/kg, route intravenous; details: in vivo
[5] = system: Plasma; assay: Drug metabolism in Sprague-Dawley rat plasma assessed as metabolite hydroxysaikosaponin a formation at 50 mg/kg, po administered through gavage by LC-DAD-IT-TOF-MS analysis; design: dose 50 mg/kg, route oral; details: in vivo
[6] = system: Plasma; assay: Drug metabolism in Sprague-Dawley rat plasma assessed as metabolite saikogenin f formation at 15 mg/kg, iv by LC-DAD-IT-TOF-MS analysis; design: dose 15 mg/kg, route intravenous; details: in vivo
[7] = Drug excretion in Sprague-Dawley rat urine assessed as metabolite saikogenin f-27-oic acid level at 15 mg/kg, iv by LC-DAD-IT-TOF-MS analysis; design: dose 15 mg/kg, route intravenous; details: in vivo
[8] = Drug excretion in Sprague-Dawley rat feces assessed as metabolite saikogenin f level at 15 mg/kg, iv by LC-DAD-IT-TOF-MS analysis; design: dose 15 mg/kg, route intravenous; details: in vivo
[9] = Drug excretion in Sprague-Dawley rat feces assessed as metabolite hydroxysaikosaponin a level at 50 mg/kg, po administered through gavage by LC-DAD-IT-TOF-MS analysis; design: dose 50 mg/kg, route oral; details: in vivo
[10] = system: Plasma; assay: Drug metabolism in Sprague-Dawley rat plasma assessed as metabolite saikogenin f-27-oic acid formation at 15 mg/kg, iv by LC-DAD-IT-TOF-MS analysis; design: dose 15 mg/kg, route intravenous; details: in vivo
[11] = Drug excretion in Sprague-Dawley rat feces assessed as metabolite 3-keto-saikogenin f level at 15 mg/kg, iv by LC-DAD-IT-TOF-MS analysis; design: dose 15 mg/kg, route intravenous; details: in vivo
[12] = Drug excretion in Sprague-Dawley rat bile assessed as metabolite hydroxysaikosaponin a level at 15 mg/kg, iv by LC-DAD-IT-TOF-MS analysis; design: dose 15 mg/kg, route intravenous; details: in vivo
[13] = system: Plasma; assay: Drug metabolism in Sprague-Dawley rat plasma assessed as metabolite saikogenin f-27-oic acid formation at 50 mg/kg, po administered through gavage by LC-DAD-IT-TOF-MS analysis; design: dose 50 mg/kg, route oral; details: in vivo
[14] = Drug excretion in Sprague-Dawley rat feces assessed as metabolite saikogenin f-27-oic acid level at 50 mg/kg, po administered through gavage by LC-DAD-IT-TOF-MS analysis; design: dose 50 mg/kg, route oral; details: in vivo
[15] = system: Plasma; assay: Drug uptake in Sprague-Dawley rat plasma at 15 mg/kg, iv by LC-DAD-IT-TOF-MS analysis; design: dose 15 mg/kg, route intravenous; details: in vivo
[16] = system: Plasma; assay: Drug metabolism in Sprague-Dawley rat plasma assessed as metabolite prosaikogenin f formation at 15 mg/kg, iv by LC-DAD-IT-TOF-MS analysis; design: dose 15 mg/kg, route intravenous; details: in vivo
[17] = Drug excretion in Sprague-Dawley rat bile assessed as metabolite saikogenin f-27-oic acid level at 50 mg/kg, po administered through gavage by LC-DAD-IT-TOF-MS analysis; design: dose 50 mg/kg, route oral; details: in vivo
[18] = Drug excretion in Sprague-Dawley rat bile assessed as metabolite hydroxysaikosaponin a level at 50 mg/kg, po administered through gavage by LC-DAD-IT-TOF-MS analysis; design: dose 50 mg/kg, route oral; details: in vivo
[19] = Drug excretion in Sprague-Dawley rat urine at 15 mg/kg, iv by LC-DAD-IT-TOF-MS analysis; design: dose 15 mg/kg, route intravenous; details: in vivo
[20] = Drug excretion in Sprague-Dawley rat urine assessed as metabolite prosaikogenin f level at 50 mg/kg, po administered through gavage by LC-DAD-IT-TOF-MS analysis; design: dose 50 mg/kg, route oral; details: in vivo
[21] = Drug excretion in Sprague-Dawley rat bile at 15 mg/kg, iv by LC-DAD-IT-TOF-MS analysis; design: dose 15 mg/kg, route intravenous; details: in vivo
[22] = Drug excretion in Sprague-Dawley rat urine assessed as metabolite hydroxysaikosaponin a level at 50 mg/kg, po administered through gavage by LC-DAD-IT-TOF-MS analysis; design: dose 50 mg/kg, route oral; details: in vivo
[23] = Drug recovery in po dosed rat excreted feces measured over 0 to 24 hrs after drug administration by HPLC analysis relative to starting drug dose; details: faeces, read-out: Drug recovery
[24] = system: Plasma; assay: Drug metabolism in Sprague-Dawley rat plasma assessed as metabolite 3-keto-saikogenin f formation at 15 mg/kg, iv by LC-DAD-IT-TOF-MS analysis; design: dose 15 mg/kg, route intravenous; details: in vivo
[25] = Drug excretion in Sprague-Dawley rat urine assessed as metabolite prosaikogenin f level at 15 mg/kg, iv by LC-DAD-IT-TOF-MS analysis; design: dose 15 mg/kg, route intravenous; details: in vivo
[26] = system: Plasma; assay: Drug metabolism in Sprague-Dawley rat plasma assessed as metabolite hydroxysaikosaponin a formation at 15 mg/kg, iv by LC-DAD-IT-TOF-MS analysis; design: dose 15 mg/kg, route intravenous; details: in vivo
[27] = system: Plasma; assay: Drug metabolism in Sprague-Dawley rat plasma assessed as metabolite prosaikogenin f formation at 50 mg/kg, po administered through gavage by LC-DAD-IT-TOF-MS analysis; design: dose 50 mg/kg, route oral; details: in vivo
[28] = system: Plasma; assay: Drug metabolism in Sprague-Dawley rat plasma assessed as metabolite 3-keto-saikogenin f formation at 50 mg/kg, po administered through gavage by LC-DAD-IT-TOF-MS analysis; design: dose 50 mg/kg, route oral; details: in vivo
[29] = Drug excretion in Sprague-Dawley rat bile assessed as metabolite saikogenin f-27-oic acid level at 15 mg/kg, iv by LC-DAD-IT-TOF-MS analysis; design: dose 15 mg/kg, route intravenous; details: in vivo
[30] = Drug excretion in Sprague-Dawley rat urine assessed as metabolite 3-keto-saikogenin f level at 15 mg/kg, iv by LC-DAD-IT-TOF-MS analysis; design: dose 15 mg/kg, route intravenous; details: in vivo
[31] = Drug excretion in Sprague-Dawley rat bile assessed as metabolite prosaikogenin f level at 15 mg/kg, iv by LC-DAD-IT-TOF-MS analysis; design: dose 15 mg/kg, route intravenous; details: in vivo
[32] = Drug excretion in Sprague-Dawley rat bile assessed as metabolite prosaikogenin f level at 50 mg/kg, po administered through gavage by LC-DAD-IT-TOF-MS analysis; design: dose 50 mg/kg, route oral; details: in vivo
[33] = Drug excretion in Sprague-Dawley rat feces at 50 mg/kg, po administered through gavage by LC-DAD-IT-TOF-MS analysis; design: dose 50 mg/kg, route oral; details: in vivo
[34] = system: Plasma; assay: Drug metabolism in Sprague-Dawley rat plasma assessed as metabolite delta1-saikogenin f formation at 50 mg/kg, po administered through gavage by LC-DAD-IT-TOF-MS analysis; design: dose 50 mg/kg, route oral; details: in vivo
[35] = Drug excretion in Sprague-Dawley rat bile assessed as metabolite saikogenin f level at 15 mg/kg, iv by LC-DAD-IT-TOF-MS analysis; design: dose 15 mg/kg, route intravenous; details: in vivo
[36] = Drug excretion in Sprague-Dawley rat urine assessed as metabolite 3-keto-saikogenin f level at 50 mg/kg, po administered through gavage by LC-DAD-IT-TOF-MS analysis; design: dose 50 mg/kg, route oral; details: in vivo
[37] = Drug excretion in Sprague-Dawley rat feces at 15 mg/kg, iv by LC-DAD-IT-TOF-MS analysis; design: dose 15 mg/kg, route intravenous; details: in vivo
[38] = Drug excretion in Sprague-Dawley rat feces assessed as metabolite saikogenin f-27-oic acid level at 15 mg/kg, iv by LC-DAD-IT-TOF-MS analysis; design: dose 15 mg/kg, route intravenous; details: in vivo

## C[C@H]1O[C@@H](O[C@H]2CC[C@@]3(C)[C@@H](CC[C@]4(C)[C@@H]3C=C[C@]35OC[C@@]6(CCC(C)(C)C[C@H]63)[C@@H](O)C[C@]54C)[C@]2(C)CO)[C@H](O)[C@@H](O[C@@H]2O[C@H](CO)[C@@H](O)[C@H](O)[C@H]2O)[C@H]1O [SAIKOSAPONIN A]
[1]
  Drug excretion: metabolite_detected
[2]
  Drug excretion: metabolite_not_detected
[3]
  Drug excretion: metabolite_not_detected
[4]
  Drug excretion: metabolite_not_detected
[5]
  Drug metabolism: metabolite_not_detected
[6]
  Drug metabolism: metabolite_not_detected
[7]
  Drug excretion: metabolite_not_detected
[8]
  Drug excretion: metabolite_detected
[9]
  Drug excretion: metabolite_not_detected
[10]
  Drug metabolism: metabolite_not_detected
[11]
  Drug excretion: metabolite_not_detected
[12]
  Drug excretion: metabolite_detected
[13]
  Drug metabolism: metabolite_not_detected
[14]
  Drug excretion: metabolite_detected
[15]
  Drug uptake: Active
[16]
  Drug metabolism: metabolite_detected
[17]
  Drug excretion: metabolite_not_detected
[18]
  Drug excretion: metabolite_not_detected
[19]
  Drug excretion: metabolite_detected
[20]
  Drug excretion: metabolite_detected
[21]
  Drug excretion: metabolite_detected
[22]
  Drug excretion: metabolite_not_detected
[23]
  dose excreted: > 50%
[24]
  Drug metabolism: metabolite_not_detected
[25]
  Drug excretion: metabolite_detected
[26]
  Drug metabolism: metabolite_not_detected
[27]
  Drug metabolism: metabolite_detected
[28]
  Drug metabolism: metabolite_not_detected
[29]
  Drug excretion: metabolite_not_detected
[30]
  Drug excretion: metabolite_not_detected
[31]
  Drug excretion: metabolite_detected
[32]
  Drug excretion: metabolite_detected
[33]
  Drug excretion: metabolite_detected
[34]
  Drug metabolism: metabolite_not_detected
[35]
  Drug excretion: metabolite_not_detected
[36]
  Drug excretion: metabolite_detected
[37]
  Drug excretion: metabolite_not_detected
[38]
  Drug excretion: metabolite_detected

Source: ChEMBL document CHEMBL3525998, “Metabolism of saikosaponin a in rats: diverse oxidations on the aglycone moiety in liver and intestine in addition to hydrolysis of glycosidic bonds” (Drug Metab Dispos, 2013)
